Calls of active or inactive are those of the source. No cut-off for these calls is given here.
Key:
[1] = Displacement of [3H]-EMPA from human orexin 2 receptor expressed in CHO cells incubated for 2 hrs by whole cell radioligand binding assay; format: cell-based
[2] = organism: Homo sapiens; assay: Displacement of [3H]-EMPA from human orexin 2 receptor expressed in CHO cells incubated for 2 hrs by whole cell radioligand binding assay relative to control; format: cell-based; set-up: concentration or dose not given beside the values; conditions: dose or concentration not given here
[3] = biological target: T1, Orexin/Hypocretin receptor type 1 (Homo sapiens) (UniProt O43613); conditions: CHO, time 120.0 sec
T1 sequence (whole entry): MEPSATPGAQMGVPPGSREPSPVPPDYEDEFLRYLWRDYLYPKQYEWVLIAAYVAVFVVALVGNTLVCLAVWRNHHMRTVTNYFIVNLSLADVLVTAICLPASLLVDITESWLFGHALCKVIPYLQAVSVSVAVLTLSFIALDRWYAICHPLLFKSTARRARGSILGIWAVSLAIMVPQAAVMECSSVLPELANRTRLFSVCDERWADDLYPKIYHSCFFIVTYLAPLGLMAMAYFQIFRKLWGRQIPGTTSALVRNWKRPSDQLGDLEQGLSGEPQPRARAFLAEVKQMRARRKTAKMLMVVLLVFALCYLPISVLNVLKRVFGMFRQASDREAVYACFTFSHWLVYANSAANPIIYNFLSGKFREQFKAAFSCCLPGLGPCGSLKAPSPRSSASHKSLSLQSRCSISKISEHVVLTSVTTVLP
Description: Agonist activity at human orexin 1 receptor expressed in CHO cells assessed as increase in calcium mobilization incubated for 120 secs by Fluo-4AM dye based fluorescence assay

[4] = biological target: T2, Orexin/Hypocretin receptor type 1 (Homo sapiens, UniProt O43613); assay: Displacement of [3H]-[…] from human orexin 1 receptor expressed in CHO cells incubated for 2 hrs by whole cell radioligand binding assay; format: cell-based
T2 sequence (O43613 whole entry): T1 sequence (whole entry)

[5] = biological target: T3, Orexin receptor type 2 (Homo sapiens) (UniProt O43614); assay: Agonist activity at human orexin 2 receptor expressed in CHO cells assessed as increase in calcium mobilization incubated for 120 secs by Fluo-4AM dye based fluorescence assay; format: functional, cell-based; conditions: time 120.0 sec
T3 sequence (whole entry): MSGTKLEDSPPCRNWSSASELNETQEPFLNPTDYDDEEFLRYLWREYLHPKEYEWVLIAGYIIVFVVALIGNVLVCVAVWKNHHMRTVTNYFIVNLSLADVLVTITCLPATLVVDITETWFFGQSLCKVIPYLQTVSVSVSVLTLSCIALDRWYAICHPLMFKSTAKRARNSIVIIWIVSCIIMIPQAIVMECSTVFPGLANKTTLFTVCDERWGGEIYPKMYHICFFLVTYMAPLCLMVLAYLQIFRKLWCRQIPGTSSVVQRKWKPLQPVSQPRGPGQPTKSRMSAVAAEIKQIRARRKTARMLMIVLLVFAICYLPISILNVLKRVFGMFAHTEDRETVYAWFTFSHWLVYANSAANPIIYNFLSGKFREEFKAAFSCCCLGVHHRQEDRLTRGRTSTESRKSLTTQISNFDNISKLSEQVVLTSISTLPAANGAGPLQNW

Question: With `C[C@@H](Oc1ccc2c(c1)oc(=O)c1ccccc12)C(=O)c1ccccc1` as the compound, how does the pKi [1] read?
Answer: 5.27

Question: And the inhibition [2]?
Answer: 63.7%

Question: What about the pEC50 [3] of the same compound?
Answer: inactive

Question: What about the Ki [4] of the same compound?
Answer: 5.37 µM

Question: And the pEC50 [5]?
Answer: inactive

Question: Which results are given for `Cc1ccc(CSCc2ccc(-c3nc(-c4ccccn4)no3)o2)cc1`?
Answer: pKi [1]: 5.07; inhibition [2]: 79.2%; Ki [4]: 15.5 µM; pEC50 [5]: inactive
